# Literature values in US20060141037A1, “Bilayer tablets of oxcarbazepine for controlled delivery and a process of preparation thereof” (J. B. Chemicals & Pharmaceuticals Ltd., priority 2004, published 2006).
# How the values were obtained:
# [1] = test system: animal models; conditions: comparable to that of carbamazepine and phenytoin
# [2] = test system: voltage-sensitive sodium channels; conditions: in vitro electrophysiological studies
SMILES,antiepileptic activity in animal models [1],effect on voltage-sensitive sodium channels [2],solubility in water
"NC(=O)N1c2ccccc2CC(O)c2ccccc21 (centres unmarked) [MHD, 10,11-dihydro-10-hydro-carbamazepine]",potent antiepileptic activity,blockade of voltage-sensitive sodium channels,
"NC(=O)N1c2ccccc2CC(=O)c2ccccc21 [Oxcarbazepine, 10,11-dihydro-10-oxo-5H-dibenz[b,f]azepine-5-carboxamide]",potent antiepileptic activity,blockade of voltage-sensitive sodium channels,practically insoluble in water
